This is an account of results in patent US20160222056A1, “SUBSTITUTED PHENYLALANINE DERIVATIVES” (BAYER PHARMA AKTIENGESELLSCHAFT, priority 2013, published 2016).

Structures can show the parent of a compound that is named as a salt.

Format in all cases: biochemical
The subject of experiment [1] is human and animal plasma. Briefly: Anticoagulatory activity: activated partial thromboplastin time (aPTT) in plasma. The following applies: in vitro in plasma, C.K. Prest kit, 37° C. for 3 minutes; plasma species of Table B not stated. The method, then:
The anticoagulatory activity of the test substances is determined in vitro in human and animal plasma (for example mouse, rat, rabbit, pig and dog plasma). To this end, blood is drawn off in a mixing ratio of sodium citrate/blood of 1:9 using a 0.11 molar sodium citrate solution as receiver. Immediately after the blood has been drawn off, it is mixed thoroughly and centrifuged at about 4000 g for 15 minutes. The supernatant is pipetted off.
The activated partial thromboplastin time (aPTT) is determined in the presence of varying concentrations of test substance or the corresponding solvent using a commercial test kit (C.K. Prest from Diagnostica Stago). The test compounds are incubated with the plasma and the PTT reagent (cephalin, kaolin) at 37° C. for 3 minutes. Coagulation is then started by addition of 25 mM aqueous calcium chloride, and the time when coagulation occurs is determined. The concentration of test substance which brings about a 1.5-fold extension of the aPTT is determined.

Experiment [2] deals with T1, human factor XIa (Homo sapiens, UniProt P03951).
T1 construct: purchased Kordia
Briefly: Measurement of FXIa inhibition (fluorogenic peptide substrate). The note with it: human factor XIa from Kordia, substrate Boc-Glu(OBzl)-Ala-Arg-AMC, 30 min at 22° C.; read-out: IC50 (FXIa inhibition). As for the experimental part: To determine the factor XIa inhibition of the substances according to the invention, a biochemical test system is used which utilizes the reaction of a peptidic factor XIa substrate to determine the enzymatic activity of human factor XIa. Here, factor XIa cleaves from the peptic factor XIa substrate the C-terminal aminomethylcoumarin (AMC), the fluorescence of which is measured. The determinations are carried out in microtitre plates.
(§1) Test substances are dissolved in dimethyl sulphoxide and serially diluted in dimethyl sulphoxide (3000 μM to 0.0078 μM; resulting final concentrations in the test: 50 μM to 0.00013 μM). In each case 1 μl of the diluted substance solutions are placed into the wells of white microtitre plates from Greiner (384 wells). Subsequently, the following are added successively: 20 μl of assay buffer (50 mmol/1 Tris buffer pH 7.4; 100 mmol/1 sodium chloride; 5 mmol/1 calcium chloride; 0.1% bovine serum albumin) and 20 μl of factor XIa from Kordia (0.45 nM in assay buffer). After 15 min of incubation, the enzyme reaction is started by addition of 20 μl of the factor XIa substrate Boc-Glu(OBzl)-Ala-Arg-AMC dissolved in assay buffer (10 μM in assay buffer) from Bachem, the mixture is incubated at room temperature (22° C.) for 30 min and fluorescence is then measured (excitation: 360 nm, emission: 460 nm). The measured emissions of the test batches with test substance are compared to those of control batches without test substance (only dimethyl sulphoxide instead of test substance in dimethyl sulphoxide), and the IC50 values are calculated from the concentration/activity relationships.

Experiment [3] addresses T2, human plasmin (Homo sapiens, UniProt P00747).
T2 construct: purchased Kordia
Briefly: Measurement of plasmin inhibition (fluorogenic peptide substrate). The following applies: plasmin from Kordia, substrate MeOSuc-Ala-Phe-Lys-AMC, 30 min at 22° C. As for the experimental part: The plasmin inhibition of the inventive substances is determined using a biochemical test system which utilizes the reaction of a peptidic plasmin substrate to determine the enzymatic activity of human plasmin. Here, plasmin cleaves from the peptic plasmin substrate the C-terminal aminomethylcoumarin (AMC), the fluorescence of which is measured. The determinations are carried out in microtitre plates.
as §1, with “plasmin” for “factor XIa”, “(0.3 μg/ml” for “(0.45 nM”, “MeOSuc-Ala-Phe-Lys-AMC” for “Boc-Glu(OBzl)-Ala-Arg-AMC”, “(150” for “(10”

T1 sequence (P03951 388-625 limits assumed): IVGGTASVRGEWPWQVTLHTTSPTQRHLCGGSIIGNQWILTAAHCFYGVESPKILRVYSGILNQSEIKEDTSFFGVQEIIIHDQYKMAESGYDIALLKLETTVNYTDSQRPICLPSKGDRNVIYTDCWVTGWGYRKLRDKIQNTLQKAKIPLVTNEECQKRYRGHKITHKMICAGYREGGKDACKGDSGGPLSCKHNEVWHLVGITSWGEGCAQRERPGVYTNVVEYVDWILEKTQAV
T1 sequence (P03951 19-387 partner limits assumed): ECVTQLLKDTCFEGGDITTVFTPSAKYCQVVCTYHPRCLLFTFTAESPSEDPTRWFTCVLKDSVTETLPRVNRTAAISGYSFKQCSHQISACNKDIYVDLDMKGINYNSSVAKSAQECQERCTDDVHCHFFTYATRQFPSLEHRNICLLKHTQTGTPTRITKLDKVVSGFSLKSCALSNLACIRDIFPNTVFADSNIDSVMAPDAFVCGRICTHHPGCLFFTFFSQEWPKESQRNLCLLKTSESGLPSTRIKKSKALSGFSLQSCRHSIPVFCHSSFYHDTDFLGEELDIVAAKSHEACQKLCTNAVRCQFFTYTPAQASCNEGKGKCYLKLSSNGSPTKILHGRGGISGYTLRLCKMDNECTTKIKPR
T2 sequence (P00747 581-810 limits assumed): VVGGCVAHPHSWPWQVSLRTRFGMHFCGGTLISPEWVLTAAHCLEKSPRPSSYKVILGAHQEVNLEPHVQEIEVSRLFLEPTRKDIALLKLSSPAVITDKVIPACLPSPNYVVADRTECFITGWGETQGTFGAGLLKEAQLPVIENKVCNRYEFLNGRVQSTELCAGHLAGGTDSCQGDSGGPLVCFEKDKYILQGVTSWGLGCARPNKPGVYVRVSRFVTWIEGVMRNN
T2 sequence (P00747 97-580 partner limits assumed): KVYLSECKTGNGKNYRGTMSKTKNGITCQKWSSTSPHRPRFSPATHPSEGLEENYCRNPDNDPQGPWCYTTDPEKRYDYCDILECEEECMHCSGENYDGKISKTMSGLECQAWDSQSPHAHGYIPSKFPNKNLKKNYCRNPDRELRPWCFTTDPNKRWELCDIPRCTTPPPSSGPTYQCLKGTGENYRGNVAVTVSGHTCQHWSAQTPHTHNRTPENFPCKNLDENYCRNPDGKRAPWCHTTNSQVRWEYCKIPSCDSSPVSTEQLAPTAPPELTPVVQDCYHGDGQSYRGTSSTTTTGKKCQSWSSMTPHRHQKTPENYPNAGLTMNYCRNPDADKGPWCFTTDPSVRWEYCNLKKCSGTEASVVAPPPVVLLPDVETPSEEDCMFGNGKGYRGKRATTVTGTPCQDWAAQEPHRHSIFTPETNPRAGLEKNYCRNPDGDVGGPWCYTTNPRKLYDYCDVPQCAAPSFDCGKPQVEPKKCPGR

For orientation: IC50 means the midpoint of a concentration-inhibition curve. Turning to `Cc1nc(C(=O)N[C@@H]2CCN(C)C2)ccc1-c1ccc(C[C@H](NC(=O)[C@H]2CC[C@H](CN)CC2)C(=O)Nc2ccc(-c3nn[nH]n3)cc2)cc1` [Example 19, N-alpha-{[trans-4-(Aminomethyl)cyclohexyl]carbonyl}-4-(2-methyl-6-{[(3R)-1-methylpyrrolidin-3-yl]carbamoyl}pyridin-3-yl)-N-[4-(2H-tetrazol-5-yl)phenyl]-L-phenylalaninamide hydrochloride], the “aPTT (concentration of test substance which brings about a 1.5-fold extension of the aPTT)” value in experiment [1] amounted to 0.12 µmol/L. The IC50 in experiment [2] stood at 4.5 nM.

Regarding `Cc1cc(C(=O)NC2CNCC(F)(F)C2)ncc1-c1ccc(C[C@H](NC(=O)[C@H]2CC[C@H](CN)CC2)C(=O)Nc2ccc(-c3nnn[nH]3)cc2)cc1` (stereo partly drawn) [Example 20, N-alpha-{[trans-4-(Aminomethyl)cyclohexyl]carbonyl}-4-{6-[(5,5-difluoropiperidin-3-yl)carbamoyl]-4-methylpyridin-3-yl}-N-[4-(1H-tetrazol-5-yl)phenyl]-L-phenylalaninamide hydrochloride], the “aPTT (concentration of test substance which brings about a 1.5-fold extension of the aPTT)” value in experiment [1] is 0.13 µmol/L. For the same molecule, the half-maximal inhibitory concentration (IC50) in experiment [2] stood at 3.9 nM.

As to `Cc1cc(C(=O)N[C@@H]2CCCNC2=O)ncc1-c1ccc(C[C@H](NC(=O)[C@H]2CC[C@H](CN)CC2)C(=O)Nc2ccc(-c3nnn[nH]3)cc2)cc1` [Example 21, N-alpha-{[trans-4-(Aminomethyl)cyclohexyl]carbonyl}-4-(4-methyl-6-{[(3R)-2-oxopiperidin-3-yl]carbamoyl}pyridin-3-yl)-N-[4-(1H-tetrazol-5-yl)phenyl]-L-phenylalaninamide hydrochloride], in experiment [1], the “aPTT (concentration of test substance which brings about a 1.5-fold extension of the aPTT)” value was 0.15 µmol/L. For the same molecule, in experiment [2], the IC50 was 1.3 nM.

For `Cc1nc(C(=O)NC2CCC(O)CC2)ccc1-c1ccc(C[C@H](NC(=O)[C@H]2CC[C@H](CN)CC2)C(=O)Nc2ccc(-c3nn[nH]n3)cc2)cc1` (stereo partly drawn) [Example 22, N-alpha-{[trans-4-(Aminomethyl)cyclohexyl]carbonyl}-4-{6-[(4-hydroxycyclohexyl)carbamoyl]-2-methylpyridin-3-yl}-N-[4-(2H-tetrazol-5-yl)phenyl]-L-phenylalaninamide hydrochloride], the “aPTT (concentration of test substance which brings about a 1.5-fold extension of the aPTT)” value in experiment [1] came to 0.16 µmol/L. Besides, the IC50 in experiment [2] came to 2.5 nM.

As for `CCN(CC)CCCNC(=O)c1ccc(-c2ccc(C[C@H](NC(=O)[C@H]3CC[C@H](CN)CC3)C(=O)Nc3ccc(-c4nn[nH]n4)cc3)cc2)c(C)n1` [Example 24, N-alpha-{[trans-4-(Aminomethyl)cyclohexyl]carbonyl}-4-(6-{[3-(diethylamino)propyl]-carbamoyl}-2-methylpyridin-3-yl)-N-[4-(2H-tetrazol-5-yl)phenyl]-L-phenylalaninamide hydrochloride], the “aPTT (concentration of test substance which brings about a 1.5-fold extension of the aPTT)” value in experiment [1] is 0.17 µmol/L. For the same molecule, the concentration for half-maximal inhibition (IC50) in experiment [2] was determined as 6 nM.

For the molecule `Cc1cc(C(=O)N2CCNC(C)C2)ncc1-c1ccc(C[C@H](NC(=O)[C@H]2CC[C@H](CN)CC2)C(=O)Nc2ccc(-c3nnn[nH]3)cc2)cc1` (stereo partly drawn) [Example 25, N-alpha-{[trans-4-(Aminomethyl)cyclohexyl]carbonyl}-4-{4-methyl-6-[(3-methylpiperazin-1-yl)carbonyl]pyridin-3-yl}-N-[4-(1H-tetrazol-5-yl)phenyl]-L-phenylalaninamide hydrochloride], the “aPTT (concentration of test substance which brings about a 1.5-fold extension of the aPTT)” value in experiment [1] came out at 0.18 µmol/L. Further, the half-maximal inhibitory concentration (IC50) in experiment [2] is 4.2 nM.

Turning to `Cc1nc(C(=O)N[C@@H]2CCNC2=O)ccc1-c1ccc(C[C@H](NC(=O)[C@H]2CC[C@H](CN)CC2)C(=O)Nc2ccc(-c3nn[nH]n3)cc2)cc1` [Example 26, N-alpha-{[trans-4-(Aminomethyl)cyclohexyl]carbonyl}-4-(2-methyl-6-{[(3R)-2-oxopyrrolidin-3-yl]carbamoyl}pyridin-3-yl)-N-[4-(2H-tetrazol-5-yl)phenyl]-L-phenylalaninamide hydrochloride], in experiment [1], the “aPTT (concentration of test substance which brings about a 1.5-fold extension of the aPTT)” value is 0.22 µmol/L. Further, the IC50 in experiment [2] amounted to 1.3 nM.

For the molecule `Cc1nc(C(=O)NC2CCC(N(C)C)CC2)ccc1-c1ccc(C[C@H](NC(=O)[C@H]2CC[C@H](CN)CC2)C(=O)Nc2ccc3[nH]c(=O)[nH]c3c2)cc1` (stereo partly drawn) [Example 27, N-alpha-{[trans-4-(Aminomethyl)cyclohexyl]carbonyl}-4-(6-{[4-(dimethylamino)cyclohexyl]-carbamoyl}-2-methylpyridin-3-yl)-N-(2-oxo-2,3-dihydro-1H-benzimidazol-5-yl)-L-phenylalaninamide hydrochloride], in experiment [1], the “aPTT (concentration of test substance which brings about a 1.5-fold extension of the aPTT)” value was found to be 0.22 µmol/L. For the same molecule, the 50% inhibitory concentration (IC50) in experiment [2] stood at 19 nM.

For `Cc1cc(C(=O)N[C@@H]2CCCNC2=O)ncc1-c1ccc(C[C@H](NC(=O)[C@H]2CC[C@H](CN)CC2)C(=O)Nc2ccc3[nH]c(=O)[nH]c3c2)cc1` [Example 28, N-alpha-{[trans-4-(Aminomethyl)cyclohexyl]carbonyl}-4-(4-methyl-6-{[(3R)-2-oxopiperidin-3-yl]carbamoyl}pyridin-3-yl)-N-(2-oxo-2,3-dihydro-1H-benzimidazol-5-yl)-L-phenylalaninamide hydrochloride], the “aPTT (concentration of test substance which brings about a 1.5-fold extension of the aPTT)” value in experiment [1] was determined as 0.39 µmol/L. Besides, the IC50 in experiment [2] came to 20 nM.

`Cc1nc(C(=O)N[C@H](C)CO)ccc1-c1ccc(C[C@H](NC(=O)[C@H]2CC[C@H](CN)CC2)C(=O)Nc2ccc(-c3nn[nH]n3)cc2)cc1` [Example 29, N-alpha-{[trans-4-(Aminomethyl)cyclohexyl]carbonyl}-4-(6-{[(2R)-1-hydroxypropan-2-yl]carbamoyl}-2-methylpyridin-3-yl)-N-[4-(2H-tetrazol-5-yl)phenyl]-L-phenylalaninamide hydrochloride]: the values for the IC50 in experiment [3] and in experiment [2] were 10 nM and 2.4 nM, respectively.

`Cc1cc(C(=O)N2CCN(C)CC2)ncc1-c1ccc(C[C@H](NC(=O)[C@H]2CC[C@H](CN)CC2)C(=O)Nc2ccc(-c3nnn[nH]3)cc2)cc1` [Example 33, N-alpha-{[trans-4-(Aminomethyl)cyclohexyl]carbonyl}-4-{4-methyl-6-[(4-methylpiperazin-1-yl)carbonyl]pyridin-3-yl}-N-[4-(1H-tetrazol-5-yl)phenyl]-L-phenylalaninamide hydrochloride]: the “aPTT (concentration of test substance which brings about a 1.5-fold extension of the aPTT)” value in experiment [1] was 0.44 µmol/L. In addition, the half-maximal inhibitory concentration (IC50) in experiment [2] is 4.2 nM.

Consider `Cc1nc(C(=O)NC(C)C)ccc1-c1ccc(C[C@H](NC(=O)[C@H]2CC[C@H](CN)CC2)C(=O)Nc2ccc3[nH]c(=O)[nH]c3c2)cc1` [Example 40, N-alpha-{[trans-4-(Aminomethyl)cyclohexyl]carbonyl}-4-[6-(isopropylcarbamoyl)-2-methylpyridin-3-yl]-N-(2-oxo-2,3-dihydro-1H-benzimidazol-5-yl)-L-phenylalaninamide hydrochloride], for which the IC50 in experiment [3] stood at 1.8 nM; in experiment [2], 15.5 nM.
